Test results taken from US12002595B2, “Separation of metal ions by liquid-liquid extraction” (priority 2016, dated 2024).

Key:
[1] = Stability constant (log β) of ligand-metal complexes; format: binding; settings: Log β110 (Th^4+) versus Log β110 (Eu^3+)
Procedure: Solution Thermodynamics. All titrant solutions were degassed by boiling for 1 h while being purged under Ar. Carbonate-free 0.1 M KOH was prepared from concentrate (J. T Baker Dilut-It) and was standardized by titrating against 0.1 M potassium hydrogen phthalate (99.95%, Sigma Aldrich). Solutions of 0.1 M HCl were similarly prepared and were standardized by titrating against TRIS (99.9%, J. T. Baker). The glass electrode (Metrohm—Micro Combi—response to [H+]) used for the pH measurements was calibrated at 25.0° C. and at an ionic strength of 0.1 M (KCl) before each potentiometric or spectrophotometric titration. The calibration data were analyzed using the program GLEE (Gans & O'Sullivan, Talanta, 2000, 51 (1): 33-37) to refine for the E° and slope. All thermodynamic measurements were conducted at 25.0° C., in 0.1 M KCl supporting electrolyte under positive Ar gas pressure. The automated titration system was controlled by an 867 pH Module (Metrohm). Two-milliliter Dosino 800 burets (Metrohm) dosed the titrant (0.1 M KOH or 0.1 M HCl) into the thermostated titration vessel (5-90 mL). UV-visible spectra were acquired with an Ocean Optics USB4000-UV-vis spectrometer equipped with a TP-300 dip probe (Ocean Optics; path length of 10 mm), fiber optics and a DH-2000 light source (deuterium and halogen lamps). The fully automated titration system and the UV-vis spectrophotometer were coordinated by LBNL titration system, a computer program developed in house.
Incremental Spectrophotometric Titrations. This method was used to determine the protonation constants of 3,4,3-LI(CAM) as well as the stability constants of its complexes formed with Eu(III), Zr(IV) and ^232Th(IV). The experimental titration setup is similar to previously described systems (Sturzbecher-Hoehne, et al., Radiochimica Acta., 2013, 101 (6): 359-366). For the 3,4,3-LI(CAM) protonation (and Eu(III)-3,4,3-LI(CAM) complexes), titrations were performed with an initial concentration of 50 μM of 3,4,3-LI(CAM) (and 50 μM of Eu(III)) resulting in absorbance values included between 0 and 1.0 throughout the titration. Typically, 9 mL of a sample containing 3,4,3-LI(CAM) (and Eu(III)) and the supporting electrolyte (KCl/HCl) were incrementally perturbed by addition of 0.025 mL of carbonate-free 0.1 M KOH followed by a time delay of 80 s. Buffering of the solution was ensured by the addition of 10 mM of HEPES, 10 mM of CHES and 10 mM of MES. Between 130 and 250 data points were collected per titration, each data point including a pH measurement and a UV-Vis spectrum (250-450 nm) over the pH range 1.5 to 12.0. All spectra were corrected for dilution before data fitting. The entire procedure (electrode calibrate, titration and data treatment) was performed independently five times for the protonation constants and four times for the Eu(III)-3,4,3-LI(CAM) complexes. For the Zr(IV) and Th(IV) complexes, titrations were performed similarly but in the presence of DTPA to avoid the formation of metal hydroxides at low pH, before the uptake by 3,4,3-LI(CAM). For each metal, three titrations were performed independently in the presence of 1.1 to 40 equivalents of DTPA.
Data Treatment. […] All metal and chelator concentrations were held at estimated values determined from the volume of standardized stock solutions. All species formed with 3,4,3-LI(CAM) were considered to have significant absorbance to be observed in the UV-vis spectra and were therefore included in the refinement process. […]

[2] = Extraction by HDEHP as a function of pH with hold-back reagent
Procedure: All liquid-liquid extractions were conducted using a 1:1 organic to aqueous phase ratio for a total volume of 1 mL. Samples were pH adjusted by HNO3 and prepared for a final concentration of 1.0 M sodium lactate, 40 mM of hold-back reagent (160 mM in the case of the HOPO monomer), and 2.0 M Na^+. The concentration of the trivalent f-element was dependent on the availability and radioactivity of the isotopes. The organic phase consisted of 0.5 M HDEHP in kerosene. All samples were incubated in a thermostatic shaker held at 28° C. and rocked at 280 rpm for 90 minutes. To ensure complete phase separation, samples were left overnight at room temperature to equilibrate. Radioactive samples were analyzed by liquid scintillation counting (LSC). The analytical protocol consisted of diluting 10 uL of radioactive sample into 10 mL of Ultima Gold™. Ultima Gold™ is a commercially available analytical reagent commonly used for LSC. The resulting analytical samples were shaken for 10 min prior to counting on a Perkin-Elmer Packard Tri-Carb instrument (model B4430).
Data was analyzed by the distribution ratio (Dm), separation factor (SFm1/m2) and extraction percentage (% Extraction) as defined by Equations (6), (7) and (8), respectively. Equation (8) uses concentrations of the metal in each phase since the aqueous: organic ratio was 1. Both the organic and aqueous phases were analyzed after liquid-liquid extraction and phase separation. These calculation methods rely on the assumptions that no metal (M) is lost to sorption or precipitation and that no volume variation occurred during the mass transfer between the aqueous and organic phases.
In FIG. 23, aqueous phase: [ligand]=40 mM, buffer sodium lactate/sodium nitrate. Organic phase: [HDEHP]=0.5 M, kerosene diluent. T=25° C. O/A=1, one contact. Initial metal concentrations: [Ac-225]=0.4 nM, [Am-243]=40.4 nM, or [Gd]=500 μM (spiked with Gd-153 for LSC measurements).

Row | SMILES | Δ log β [1] | extraction of Am^3+ ([2]; pH higher than 1, 40 mM ligand, 0.5 M HDEHP) | maximum metal extraction of Am(III) ([2]; around pH 1.5) [%] | extraction of Am(III) ([2]; at pH 4) | Extraction of Gd(III) ([2]; until after pH 4)
1 | O=C(NCCCN(CCCCN(CCCNC(=O)c1cccc(=O)n1O)C(=O)c1cccc(=O)n1O)C(=O)c1cccc(=O)n1O)c1cccc(=O)n1O [3,4,3-LI(1,2-HOPO)] | 19.9 | No extraction |  |  | 
2 | O=C(O)CN(CCN(CC(=O)O)CC(=O)O)CCN(CC(=O)O)CC(=O)O [DTPA, Diethylenetriaminepentaacetic acid, reference compound] | 6.3 |  | 78 | less than 10% | above 90%
